Results published in patent publication US5175100A, “Stereospecific resolution by hydrolysis of esters of 2-arylpropionic acids by liver enzymes” (Rhone-Poulenc, Inc., priority 1991, dated 1992).

Key:
Type in all cases: biochemical
[1] = tested on: Liver acetone powder from Bovine; assay: Hydrolysis of ketoprofen esters by bovine liver acetone powder
Description: (§1) A solution of 50 mg of ketoprofen methyl ester in 0.2 ml of ethanol was added to 10 mg of each of liver acetone powder from various animal sources (described in Table 1) in 5 ml of 0.1M potassium phosphate buffer (pH 7.0) After shaking at room temperature for 24 hours, the reaction mixtures were acidified to pH 2.0 with 6(N) HCl and extracted with 10 ml of ethyl acetate. A portion of the ethyl acetate extract was analyzed by HPLC on a Partisil 5 ODS-3 RAC column (9.4 mm×100 mm, Whatman) using a mixture of methanol and 10 mM ammonium dihydrogen phospate (9:1) and monitored by UV at 254 nm to determine the percentages of acid produced in the reaction.
(§2) To determine the percentage of R- and S-acid, a portion of the ethyl acetate extract was converted to the amide derivative of the acid produced with R(+)-1-phenylethylamine as follows. The ethyl acetate extract (5 ml) was dried over sodium sulfate, filtered and cooled to 0° C. To the cold solution was added 0.2 ml of N-methylmorpholine followed by 0.2 ml of isobutyl chloroformate. After gentle shaking at 0° C. for 10 minutes, 0.2 ml of R(+)-1-phenylethylamine was added and the shaking was continued at 0° C. for 5 minutes and at room temperature for another 5 minutes. The reaction mixture was washed successively with water (5 ml), 1(N) HCl (5 ml), and water (5 ml) to provide the amide derivative in ethyl acetate solution. The ethyl acetate solution of the amide derivative was then analyzed by HPLC on the same column and same solvent mixture but with a different composition, i.e., a ratio of 6:4, and monitored by UV to determine the percentages of R- acid and S-acids produced by hydrolysis. The enantiomeric excess (EE) is defined as the difference in percent between the percent R- acid and the percent S-acid, the higher enantiomer being reported in the parenthesis in Table I.
(§3) Several esters of ketoprofen (0.2 millimole) with various alkyl groups of varying chain length were hydrolyzed using liver acetone powders from bovine, calf and dog by the procedure described in Example 1. The reaction mixtures were analyzed by the same procedures as described in Example 1 and the results obtained are summarized in Table II.

[2] = tested on: Liver acetone powder from Calf; assay: Hydrolysis of ketoprofen esters by calf liver acetone powder
Description: as §1, §2, §3

[3] = tested on: Liver acetone powder from Dog; assay: Hydrolysis of ketoprofen esters by dog liver acetone powder
Description: as §1, §2, §3

[4] = tested on: Liver acetone powder from Sheep; assay: Hydrolysis of ketoprofen methyl ester by sheep liver acetone powder
Description: as §1, §2

[5] = tested on: Liver acetone powder from Goat; assay: Hydrolysis of ketoprofen methyl ester by goat liver acetone powder
Description: as §1, §2

[6] = tested on: Liver acetone powder from Eel*; assay: Hydrolysis of ketoprofen methyl ester by eel (Anguilla anguilla) liver acetone powder; details: Eel (Anguilla anguilla) powder 10 mg, 50 mg ester, pH 7.0, room temperature, 24 hours
Description: as §1

[7] = tested on: Liver acetone powder from Rat; assay: Hydrolysis of ketoprofen methyl ester by rat liver acetone powder
Description: as §1, §2

[8] = tested on: Liver acetone powder from Turtle; assay: Hydrolysis of ketoprofen methyl ester by turtle liver acetone powder; details: Turtle powder 10 mg, 50 mg ester, pH 7.0, room temperature, 24 hours
Description: as §1

[9] = tested on: Liver acetone powder from Lungfish; assay: Hydrolysis of ketoprofen methyl ester by lungfish liver acetone powder; details: Lungfish powder 10 mg, 50 mg ester, pH 7.0, room temperature, 24 hours
Description: as §1

[10] = tested on: Liver acetone powder from Cat; assay: Hydrolysis of ketoprofen methyl ester by cat liver acetone powder
Description: as §1, §2

[11] = tested on: Liver acetone powder from Chicken; assay: Hydrolysis of ketoprofen methyl ester by chicken liver acetone powder
Description: as §1, §2

[12] = tested on: Liver acetone powder from Salmon; assay: Hydrolysis of ketoprofen methyl ester by salmon liver acetone powder; details: Salmon powder 10 mg, 50 mg ester, pH 7.0, room temperature, 24 hours
Description: as §1

[13] = tested on: Liver acetone powder from Rabbit; assay: Hydrolysis of ketoprofen methyl ester by rabbit liver acetone powder
Description: as §1, §2

[14] = tested on: Liver acetone powder from Lemon Shark; assay: Hydrolysis of ketoprofen methyl ester by lemon shark liver acetone powder; details: Lemon Shark powder 10 mg, 50 mg ester, pH 7.0, room temperature, 24 hours
Description: as §1

[15] = tested on: Liver acetone powder from Trout; assay: Hydrolysis of ketoprofen methyl ester by trout liver acetone powder; details: Trout powder 10 mg, 50 mg ester, pH 7.0, room temperature, 24 hours
Description: as §1

[16] = tested on: Liver acetone powder from Horse; assay: Hydrolysis of ketoprofen methyl ester by horse liver acetone powder
Description: as §1, §2

[17] = tested on: Liver acetone powder from Eel**; assay: Hydrolysis of ketoprofen methyl ester by eel (Electrophorous electricus) liver acetone powder; details: Eel (Electrophorous electricus) powder 10 mg, 50 mg ester, pH 7.0, room temperature, 24 hours
Description: as §1

[18] = tested on: Liver acetone powder from Guinea Pig; assay: Hydrolysis of ketoprofen methyl ester by guinea pig liver acetone powder; details: Guinea Pig powder 10 mg, 50 mg ester, pH 7.0, room temperature, 24 hours
Description: as §1

[19] = tested on: Liver acetone powder from Seal; assay: Hydrolysis of ketoprofen methyl ester by seal liver acetone powder
Description: as §1, §2

[20] = tested on: Liver acetone powder from Mouse; assay: Hydrolysis of ketoprofen methyl ester by mouse liver acetone powder
Description: as §1, §2

[21] = tested on: Liver acetone powder from Pigeon; assay: Hydrolysis of ketoprofen methyl ester by pigeon liver acetone powder
Description: as §1, §2

[22] = tested on: Liver acetone powder from Porcine; assay: Hydrolysis of ketoprofen methyl ester by porcine liver acetone powder; details: Porcine powder 10 mg, 50 mg ester, pH 7.0, room temperature, 24 hours
Description: as §1

[23] = Bovine powder, 0.2 millimole ester, procedure of Example 1
[24] = Calf powder, 0.2 millimole ester, procedure of Example 1
[25] = Dog powder, 0.2 millimole ester, procedure of Example 1
[26] = Sheep powder 10 mg, 50 mg ester, pH 7.0, room temperature, 24 hours
[27] = Bovine powder 10 mg, 50 mg ester, pH 7.0, room temperature, 24 hours
[28] = Goat powder 10 mg, 50 mg ester, pH 7.0, room temperature, 24 hours
[29] = Calf powder 10 mg, 50 mg ester, pH 7.0, room temperature, 24 hours
[30] = Rat powder 10 mg, 50 mg ester, pH 7.0, room temperature, 24 hours
[31] = Dog powder 10 mg, 50 mg ester, pH 7.0, room temperature, 24 hours
[32] = Cat powder 10 mg, 50 mg ester, pH 7.0, room temperature, 24 hours
[33] = Chicken powder 10 mg, 50 mg ester, pH 7.0, room temperature, 24 hours
[34] = Rabbit powder 10 mg, 50 mg ester, pH 7.0, room temperature, 24 hours
[35] = Horse powder 10 mg, 50 mg ester, pH 7.0, room temperature, 24 hours
[36] = Seal powder 10 mg, 50 mg ester, pH 7.0, room temperature, 24 hours
[37] = Mouse powder 10 mg, 50 mg ester, pH 7.0, room temperature, 24 hours
[38] = Pigeon powder 10 mg, 50 mg ester, pH 7.0, room temperature, 24 hours

## CCOC(=O)C(C)c1cccc(C(=O)c2ccccc2)c1 (stereo not shown) [C-2]
[1]; [23]
  EE(%) of R-Acid: 40.6%
  Percent of Acid R-Acid: 70.3%
  Percent of Acid S-Acid: 29.7%
[2]; [24]
  EE(%) of R-Acid: 39.2%
  Percent of Acid R-Acid: 69.6%
  Percent of Acid S-Acid: 30.4%
[3]; [25]
  EE(%) of R-Acid: 65.0%
  Percent of Acid R-Acid: 82.5%
  Percent of Acid S-Acid: 17.5%

## CCCOC(=O)C(C)c1cccc(C(=O)c2ccccc2)c1 (stereo not shown) [C-3]
[1]; [23]
  EE(%) of R-Acid: 41.4%
  Percent of Acid R-Acid: 70.7%
  Percent of Acid S-Acid: 29.3%
[2]; [24]
  EE(%) of R-Acid: 38.2%
  Percent of Acid R-Acid: 69.1%
  Percent of Acid S-Acid: 30.9%
[3]; [25]
  EE(%) of R-Acid: 68.2%
  Percent of Acid R-Acid: 84.1%
  Percent of Acid S-Acid: 15.9%

## CCCCOC(=O)C(C)c1cccc(C(=O)c2ccccc2)c1 (stereo not shown) [C-4]
[1]; [23]
  EE(%) of R-Acid: 33.4%
  Percent of Acid R-Acid: 66.7%
  Percent of Acid S-Acid: 33.3%
[2]; [24]
  EE(%) of R-Acid: 38.2%
  Percent of Acid R-Acid: 65.6%
  Percent of Acid S-Acid: 34.4%
[3]; [25]
  EE(%) of R-Acid: 68.8%
  Percent of Acid R-Acid: 84.4%
  Percent of Acid S-Acid: 15.6%

## CCCCCCOC(=O)C(C)c1cccc(C(=O)c2ccccc2)c1 (stereo not shown) [C-6]
[1]; [23]
  EE(%) of R-Acid: 45.4%
  Percent of Acid R-Acid: 72.7%
  Percent of Acid S-Acid: 27.3%
[2]; [24]
  EE(%) of R-Acid: 42.0%
  Percent of Acid R-Acid: 71.0%
  Percent of Acid S-Acid: 29.0%
[3]; [25]
  EE(%) of R-Acid: 35.8%
  Percent of Acid R-Acid: 67.9%
  Percent of Acid S-Acid: 32.1%

## CCCCCCCCOC(=O)C(C)c1cccc(C(=O)c2ccccc2)c1 (stereo not shown) [C-8]
[1]; [23]
  EE(%) of R-Acid: 55.8%
  Percent of Acid R-Acid: 77.9%
  Percent of Acid S-Acid: 22.1%
[2]; [24]
  EE(%) of R-Acid: 24.2%
  Percent of Acid R-Acid: 62.1%
  Percent of Acid S-Acid: 37.9%
[3]; [25]
  EE(%) of R-Acid: 41.4%
  Percent of Acid R-Acid: 70.7%
  Percent of Acid S-Acid: 29.3%

## COC(=O)C(C)c1cccc(C(=O)c2ccccc2)c1 (stereo not shown) [Methyl Ester of Ketoprofen, ketoprofen methyl ester]
[4]; [26]
  Percentage of Acid R-acid: 46.5%
  Percentage of Acid S-acid: 53.5%
  Percentage of acid: 18.1%
[4]; Sheep powder, Table 1, higher enantiomer (S)
  Percentage EE of acid (R or S): 7.0%
[1]; [27]
  Percentage of Acid R-acid: 71.2%
  Percentage of Acid S-acid: 28.8%
  Percentage of acid: 4.3%
[1]; [23]
  Acid Produced (%): 4.4%
  EE(%) of R-Acid: 47.2%
  Percent of Acid R-Acid: 73.6%
  Percent of Acid S-Acid: 26.4%
[1]; Bovine powder, Table 1, higher enantiomer (R)
  Percentage EE of acid (R or S): 42.4%
[5]; [28]
  Percentage of Acid R-acid: 42.3%
  Percentage of Acid S-acid: 57.7%
  Percentage of acid: 15.5%
[5]; Goat powder, Table 1, higher enantiomer (S)
  Percentage EE of acid (R or S): 15.4%
[2]; [29]
  Percentage of Acid R-acid: 71.6%
  Percentage of Acid S-acid: 28.4%
  Percentage of acid: 5.7%
[2]; [24]
  Acid Produced (%): 7.3%
  EE(%) of R-Acid: 45.6%
  Percent of Acid R-Acid: 72.8%
  Percent of Acid S-Acid: 27.2%
[2]; Calf powder, Table 1, higher enantiomer (R)
  Percentage EE of acid (R or S): 43.2%
[6]
  Percentage of acid: 3.0%
[7]; [30]
  Percentage of Acid R-acid: 52.7%
  Percentage of Acid S-acid: 47.3%
  Percentage of acid: 7.5%
[7]; Rat powder, Table 1, higher enantiomer (R)
  Percentage EE of acid (R or S): 5.4%
[8]
  Percentage of acid: 0.6%
[3]; [31]
  Percentage of Acid R-acid: 87.1%
  Percentage of Acid S-acid: 12.9%
  Percentage of acid: 8.0%
[3]; [25]
  Acid Produced (%): 6.2%
  EE(%) of R-Acid: 76.6%
  Percent of Acid R-Acid: 88.3%
  Percent of Acid S-Acid: 11.7%
[3]; Dog powder, Table 1, higher enantiomer (R)
  Percentage EE of acid (R or S): 74.2%
[9]
  Percentage of acid: 3.2%
[10]; [32]
  Percentage of Acid R-acid: 64.1%
  Percentage of Acid S-acid: 35.9%
  Percentage of acid: 7.2%
[10]; Cat powder, Table 1, higher enantiomer (R)
  Percentage EE of acid (R or S): 28.2%
[11]; [33]
  Percentage of Acid R-acid: 52.7%
  Percentage of Acid S-acid: 47.3%
  Percentage of acid: 8.1%
[11]; Chicken powder, Table 1, higher enantiomer (R)
  Percentage EE of acid (R or S): 5.4%
[12]
  Percentage of acid: 0.6%
[13]; [34]
  Percentage of Acid R-acid: 46.1%
  Percentage of Acid S-acid: 53.9%
  Percentage of acid: 54.9%
[13]; Rabbit powder, Table 1, higher enantiomer (S)
  Percentage EE of acid (R or S): 7.8%
[14]
  Percentage of acid: 0.6%
[15]
  Percentage of acid: 0.7%
[16]; [35]
  Percentage of Acid R-acid: 62.7%
  Percentage of Acid S-acid: 37.3%
  Percentage of acid: 24.1%
[16]; Horse powder, Table 1, higher enantiomer (R)
  Percentage EE of acid (R or S): 25.4%
[17]
  Percentage of acid: 1.1%
[18]
  Percentage of acid: 0.8%
[19]; [36]
  Percentage of Acid R-acid: 48.9%
  Percentage of Acid S-acid: 51.1%
  Percentage of acid: 14.3%
[19]; Seal powder, Table 1, higher enantiomer (S)
  Percentage EE of acid (R or S): 2.2%
[20]; [37]
  Percentage of Acid R-acid: 49.0%
  Percentage of Acid S-acid: 51.0%
  Percentage of acid: 9.4%
[20]; Mouse powder, Table 1, higher enantiomer (R)
  Percentage EE of acid (R or S): 2.0%
[21]; [38]
  Percentage of Acid R-acid: 66.7%
  Percentage of Acid S-acid: 33.3%
  Percentage of acid: 18.0%
[21]; Pigeon powder, Table 1, higher enantiomer (R)
  Percentage EE of acid (R or S): 33.4%
[22]
  Percentage of acid: 0.9%
